Test results from patent publication US5409938A, “Antimalarial korupensamines and pharmaceutical compositions and medical uses thereof” (The United States of America as represented by the …, priority 1994, dated 1995).
Values after ≈ are worked out from the molar mass of the structure shown.

Columns and labels:
Plasmodium falciparum = assay: in vitro antimalarial activity, 3H-hypoxanthine incorporation, P. falciparum (strain NF 54/64, clone A1A9) in human erythrocytes; assay type: cell-based; settings: averages of 6 repeat tests
Procedure: This example illustrates the antimalarial activity of the korupensamines of the present invention. […] Continuous in vitro cultures of asexual erythrocytic stages of P. falciparum (strain NF 54/64, clone A1A9) were maintained following essentially the method of Trager and Jensen (Science, 193, 673-675, 1976) at 37° C. under an atmosphere of 5% CO2, 5% O2, and 90% N2. The host cells were human erythrocytes (A or O Rh+). The culture medium was RPMI 1640 (Gibco), containing HEPES (BDH; 4.57 gL^-1) glucose (Sigma; 1.54 gL^-1), 5% NaHCO3 (Merck; 34.78 mlL^-1),and gentamycin (Merck; 8.70 mlL^-1) supplemented with 10% human plasma (A Rh+). Parasites were subinoculated every 3-4 days with initial conditions of 1% parasitemia and 1% hematocrit.
In vitro testing with P. falciparum was as follows. Each compound was dissolved in DMSO at a concentration of 20 mg ml^-1. These solutions were further diluted with physiological saline to obtain a stock solution of 500 μg ml^-1. […]
The test protocol was performed in vitro, based upon the method of Desjardins, et al. (Antimicrobial Agents Chemother., 16, 710-718, 1979). […] The filter papers were dried for 2 h at 52° C. and their radioactivity was measured by liquid scintillation counting in Optiscint HiSafe (LKB Pharmacia).
The mean results, obtained as counts per min (cpm), were expressed as percentages of incorporation or growth inhibition. […]

Plasmodium berghei = assay: in vitro antimalarial activity, 3H-hypoxanthine incorporation, P. berghei (Anka strain); assay type: cell-based; settings: averages of 6 repeat tests
P. berghei (Anka strain) = assay: in vivo antimalarial activity in P. berghei-infected OF1 mice, parasitemia from blood smears after 4 days
Procedure: Outbred, female, six-week-old OF1 mice (six mice per group treated and nontreated [control]) were inoculated intraperitoneally on day 0 with 10^6 P. berghei (Anka strain) blood forms. Two hours later, they were administered orally 50 mg/kg of korupensamine A. A second, third, and fourth treatment (50 mg/kg each) was given after 24, 48, and 72 h respectively (days 1, 2, and 3). […] The parasitemia (%) in the control (not drug treated) group was 2.45 (range 2.21-2.69; N=6) compared to 0.69 (range 0.48-0.91; N=6) for the treated group.

[1] = Sharma, et al., 1975; cited from earlier work
[2] = Ruangrungsi, et al., 1985; cited from earlier work
[3] = Bringmann, et al., DE 41 17 080; cited from earlier work
Spodoptera littoralis = settings: larvae of Spodoptera littoralis; Grimm 1992; Bringmann 1992; cited from earlier work

## COc1cc(C)cc2c(-c3c(O)cc(O)c4c3C[C@@H](C)N[C@@H]4C)ccc(O)c12 [korupensamine A]
Plasmodium falciparum; Plasmodium falciparum, Erythrocyte, NP54/64, clone A1A9, read-out: IC50 P. faciparum
  IC50: 0.307 mg/L (≈ 0.809 µM)
Plasmodium berghei; Plasmodium berghei
  IC50: 0.555 mg/L (≈ 1.46 µM)
P. berghei (Anka strain); 50 mg/kg orally x4 (2 h after inoculation, then 24, 48, 72 h), after 4 days, N=6, control 2.45 (range 2.21-2.69; N=6)
  parasitemia (%) in the treated group: 0.69 (range 0.48-0.91; N=6) %
P. berghei (Anka strain); 50 mg/kg orally x4, blood smears after 4 days
  inhibition of the development of P. berghei erythrocytic forms: marked inhibition of the development of P. berghei erythrocytic forms

## COc1cc2c(c(OC)c1-c1c(C)cc3cccc(OC)c3c1O)C(C)=N[C@@H](C)C2 [ancistrocladidine]
[1]
  spasmolytic activity: pronounced spasmolytic activity

## COc1cc2c(c(OC)c1-c1c(C)cc3cccc(OC)c3c1O)[C@@H](C)N(C)[C@@H](C)C2 [ancistrotectorine]
[2]
  antitumor activity: antitumor activity

## COc1cc(C)cc2ccc(-c3ccc4c(c3O)[C@@H](C)N[C@H](C)C4)c(O)c12 [Dioncophylline B]
[3]
  activity as fungicides: active as fungicides

## COc1cc(C)cc2c(-c3c(O)cc(O)c4c3C[C@@H](C)N[C@@H]4C)ccc(O)c12 [korupensamine B]
Plasmodium falciparum; NP54/64, clone A1A9
  IC50 P. faciparum: 0.175 mg/L (≈ 0.461 µM)
Plasmodium berghei
  IC50 P. berghei: 0.490 mg/L (≈ 1.29 µM)

## COc1cccc2c(-c3ccc4c(c3O)C(C)NC(C)C4)c(C)cc(OC)c12 (centres unmarked) [dioncophylline A]
[3]
  activity as fungicides: active as fungicides
Spodoptera littoralis
  antifeedant effect: antifeedant effect against the larvae of Spodoptera littoralis
